Source: patent publication US4058621A, “Iron complexes and foodstuffs containing them” (priority 1975, dated 1977)

Columns and labels:
[1] = maximum amount of iron which can be complexed with galacturonic acid; assay type: physicochemical
Procedure: 25.5 grams of high-purity galacturonic acid were dissolved in 300 ml of distilled water with the addition of solid sodium carbonate until a pH of 8 to 9 was reached. Separately, 24 grams of anhydrous ferric chloride were dissolved in 300 ml of distilled water and this solution was then added slowly, by dropping funnel, to the aforementioned solution of galacturonic acid, adjusting with solid sodium carbonate as needed to keep the mixture slightly alkaline, e.g. pH 8-9, and keeping the mixture stirred moderately. A beautiful brown-red solution was thus obtained. In order to ascertain the maximum amount of iron which can be complexed with galacturonic acid, a solution of 189.9 grams of anhydrous ferric chloride was dissolved in 1500 ml of distilled water, and this solution was added gradually to the above solution, with good stirring, and always adjusting the alkalinity to a pH of 8-9. […] A light-brown precipitate then appeared which, however, was dissolved again completely in about an hour's time and a perfectly clear, deep brown-red solution again resulted. From the total amounts of galacturonic acid used and ferric chloride solution consumed in the test, it was calculated that one mol weight of galacturonic acid will complex three atom weights of iron. Actually, 2,989 atom-weights of iron were consumed, an amount well within experimental error.

[2] = test system: rabbits; details: intravenous route; cited from earlier work
[3] = test system: rats; details: oral ingestion; cited from earlier work
[4] = test system: humans; details: not without risk of some serious side effects; cited from earlier work
[5] = test system: anemic rat; experiment: curative test: bioavailability of iron / hemoglobin repletion in the anemic rat (cyanomethemoglobin method of Drabkin); assay type: in vivo, rat (male albino, Wistar-derived stock); details: for improvement in hemoglobin: 0.2 mg iron per day
Source text: The "curative" test results can be obtained in an oral administration technique, wherein the test animals are fed a prescribed iron-poor diet and are brought to an anemic condition through a controlled experimental technique. […] This test technique is generally standardized and has been used, with many variations, to determine bioavailability of iron in a variety of hematinics.
Reagent grade ferrous sulfate heptahydrate (Fisher Scientific Co.) was used without further purification at the calculated iron content of 20.1%.
Weanling male albino rats (Wistar-derived stock weighing between 45 and 55 grams) were placed in individual cages (newly galvanized) and provided with food and distilled water, ad libitum. The iron-low diet was that described by Pla and Fritz (J. Assoc. Offic. Anal. Chem. 54, 18 (1971). Weekly determination of hemoglobin content in tail blood was determined by the cyanomethemoglobin method of Drabkin adapted to 0.02 ml samples as recommended by these authors.
18 rats were selected for the test from a larger number to provide three matched groups of six, each having essentially equal initial hemoglobin values.
The solution prepared on Fridays was also dosed on Saturdays and Sundays. The solutions were administered by intragastric intubulation. The Negative Control Group received sham treatment consisting of plain water.
Body weights of all animals were recorded weekly and hemoglobin determinations were repeated after two and four weeks of dosing.

Compound | iron actually consumed per mol weight of galacturonic acid ([1]; pH 8-9) | iron complexed per mol weight of galacturonic acid ([1]; pH 8-9, calculated from amounts consumed) | LD50 [2] | LD50 [3] | tolerated oral dosage [4] | improvement in hemoglobin ([5]; after four weeks of dosing) | improvement in hemoglobin ([5]; after two weeks of dosing) | body weight gain ([5]; as compared to the Example 1 Group, differences were nominal) | efficacy in reversing mild deficiency anemia ([5]; conclusion of the test)
O=C[C@H](O)[C@@H](O)[C@@H](O)[C@H](O)C(=O)O [galacturonic acid] | 2,989 atom-weights of iron | three | – | – | – | – | – | – | –
ferrous sulfate | – | – | 99 milligrams per kilogram of body weight | 5,000 milligrams per kilogram of body weight | about 300 milligrams | significant improvement | significant improvement | averaged slightly better | reversing mild deficiency anemia
